Laboratory results: PubChem BioAssay AID330 (DTP/NCI, 2004)
Where “and” joins values, the source holds several entries; their conditions need not be identical. Equal values may be shown once. Inconclusive results and toxic doses are left out. Rule for the calls: active = survival T/C of 150% or more; inactive = T/C below 125% in these data.

Test system: P388 leukemia ip, CD2F1 mice, survival T/C
Test: NCI In Vivo Anticancer Drug Screen. Data for tumor model P388 Leukemia (intraperitoneal) in CD2F1 (CDF1) mice
Details: endpoint: median survival time, higher = longer survival
Procedure, shortened: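 Mice carrying the transplanted tumor received test compound or vehicle. Survival was recorded in each group, and the value is the treated-group measurement divided by that of the vehicle-treated control group.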

[1] = dose: 50.0 mg/kg/injection, schedule: Q01DX005 (ip), vehicle: Klucel (hydroxypropylcellulose) (HPC)
[2] = dose: 100.0 mg/kg/injection, schedule: Q01DX005 (ip), vehicle: Klucel (hydroxypropylcellulose) (HPC)
[3] = dose: 200.0 mg/kg/injection, schedule: Q01DX005 (ip), vehicle: Klucel (hydroxypropylcellulose) (HPC)
[4] = dose: 100.0 mg/kg/injection, schedule: Q01DX009 (ip), vehicle: saline with Tween-80
[5] = dose: 100.0 mg/kg/injection, schedule: Q01DX001 (ip), vehicle: saline with Tween-80
[6] = dose: 200.0 mg/kg/injection, schedule: Q01DX001 (ip), vehicle: saline with Tween-80
[7] = dose: 25.0 mg/kg/injection, schedule: Q01DX005 (ip), vehicle: Klucel (hydroxypropylcellulose) (HPC)
[8] = dose: 12.5 mg/kg/injection, schedule: Q01DX005 (ip), vehicle: Klucel (hydroxypropylcellulose) (HPC)

Measured: T/C

NCCn1[nH]c(=O)c2cnccc2c1=O
inactive: dose: 60.0 mg/kg/injection, schedule: Q01DX005 (ip), vehicle: saline with Tween-80 95 % of control | dose: 120.0 mg/kg/injection, schedule: Q01DX005 (ip), vehicle: saline with Tween-80 100 % of control | dose: 240.0 mg/kg/injection, schedule: Q01DX005 (ip), vehicle: saline with Tween-80 95 % of control

CNCCCc1cc(-c2ccc([N+](=O)[O-])cc2)n[nH]1
inactive: dose: 100.0 mg/kg/injection, schedule: Q04DX002 (ip), vehicle: Klucel (hydroxypropylcellulose) (HPC) 100 % of control | dose: 200.0 mg/kg/injection, schedule: Q04DX002 (ip), vehicle: Klucel (hydroxypropylcellulose) (HPC) 100 % of control

CSC(=S)n1nc(C)c(N=Nc2cc(Cl)ccc2Cl)c1C
inactive: dose: 6.25 mg/kg/injection, schedule: Q01DX005 (ip), vehicle: saline with Tween-80 93 % of control | dose: 12.5 mg/kg/injection, schedule: Q01DX005 (ip), vehicle: saline with Tween-80 99 % of control | dose: 25.0 mg/kg/injection, schedule: Q01DX005 (ip), vehicle: saline with Tween-80 95 % of control | dose: 200.0 mg/kg/injection, schedule: Q01DX005 (ip), vehicle: saline with Tween-80 98 % of control

CCCC(Nc1ncccn1)Nc1ncccn1
inactive: [1] 100 % of control | [2] 100 % of control | [3] 99 % of control

COc1ccc(/C=N/N2CN(C(C)C(=O)O)C(C)(O)N=C2N)cc1OC (stereo not given)
inactive: dose: 60.0 mg/kg/injection, schedule: Q01DX005 (ip), vehicle: saline 102 % of control | dose: 120.0 mg/kg/injection, schedule: Q01DX005 (ip), vehicle: saline 104 % of control | dose: 240.0 mg/kg/injection, schedule: Q01DX005 (ip), vehicle: saline 103 % of control

C1=NN2C3c4ccccc4C(C1)C32 (stereo not given)
inactive: dose: 100.0 mg/kg/injection, schedule: Q01DX001 (ip), vehicle: Klucel (hydroxypropylcellulose) (HPC) 109 % of control | dose: 200.0 mg/kg/injection, schedule: Q01DX001 (ip), vehicle: Klucel (hydroxypropylcellulose) (HPC) 113 % of control

O=C(O)c1cccc([N+](=O)[O-])c1C(=O)c1ccccc1
inactive: dose: 25.0 mg/kg/injection, schedule: Q01DX009 (ip), vehicle: saline with Tween-80 100 % of control | dose: 50.0 mg/kg/injection, schedule: Q01DX009 (ip), vehicle: saline with Tween-80 95 % of control | dose: 50.0 mg/kg/injection, schedule: Q04DX003 (ip), vehicle: saline with Tween-80 91 % of control | [4] 100 % of control | dose: 100.0 mg/kg/injection, schedule: Q04DX003 (ip), vehicle: saline with Tween-80 95 % of control

CSCc1cc([N+](=O)[O-])ccc1N
inactive: [5] 91 % of control | [6] 98 % of control

CCOC(=O)C(N)(CO)Cc1ccccc1 (stereo not given)
inactive: dose: 50.0 mg/kg/injection, schedule: Q01DX005 (ip), vehicle: saline 103 % of control | dose: 100.0 mg/kg/injection, schedule: Q01DX005 (ip), vehicle: saline 100 % of control | dose: 200.0 mg/kg/injection, schedule: Q01DX005 (ip), vehicle: saline 99 % of control

O=c1[nH]nc(SCc2ccc(Cl)cc2)c(=O)[nH]1
inactive: [7] 92 % of control | [1] 91 % of control | [2] 90 % of control | [3] 87 % of control

O=[N+]([O-])C1C(O)CSCC1O (stereo not given)
inactive: [5] 104 % of control | [6] 104 % of control | dose: 400.0 mg/kg/injection, schedule: Q01DX001 (ip), vehicle: saline with Tween-80 107 % of control

COc1ccc(OC/C(C)=N\NS(=O)(=O)c2cc(Cl)c(Cl)cc2Cl)cc1
inactive: dose: 100.0 mg/kg/injection, schedule: Q01DX001 (ip), vehicle: gum acacia 96 % of control | dose: 200.0 mg/kg/injection, schedule: Q01DX001 (ip), vehicle: gum acacia 93 % of control | dose: 400.0 mg/kg/injection, schedule: Q01DX001 (ip), vehicle: gum acacia 95 % of control

CCCCCCCCCCCCCCCCCCCC[N+]1([O-])CCOCC1
inactive: dose: 3.12 mg/kg/injection, schedule: Q01DX009 (ip), vehicle: saline 101 % of control | dose: 6.25 mg/kg/injection, schedule: Q01DX009 (ip), vehicle: saline 87 % of control | dose: 12.5 mg/kg/injection, schedule: Q01DX009 (ip), vehicle: saline 87 % of control and 94 % of control | dose: 25.0 mg/kg/injection, schedule: Q01DX009 (ip), vehicle: saline 94 % of control | dose: 50.0 mg/kg/injection, schedule: Q01DX009 (ip), vehicle: saline 90 % of control and 92 % of control

O=C(O)C(Cc1ccc(O)cc1)NSc1ccccc1[N+](=O)[O-] (stereo not given)
inactive: dose: 25.0 mg/kg/injection, schedule: Q01DX009 (ip), vehicle: water 111 % of control | dose: 50.0 mg/kg/injection, schedule: Q01DX009 (ip), vehicle: water 108 % of control | dose: 100.0 mg/kg/injection, schedule: Q01DX009 (ip), vehicle: water 104 % of control | dose: 200.0 mg/kg/injection, schedule: Q01DX009 (ip), vehicle: water 110 % of control

O=c1[nH]cnc2c1ncn2C1SC(CO)C(O)C1O (stereo not given)
inactive: [7] 100 % of control | [1] 108 % of control | [2] 101 % of control | [3] 101 % of control | dose: 400.0 mg/kg/injection, schedule: Q01DX005 (ip), vehicle: Klucel (hydroxypropylcellulose) (HPC) 92 % of control

Cc1[nH]c2ccccc2c1CC[n+]1cccc(C#N)c1
inactive: dose: 3.12 mg/kg/injection, schedule: Q01DX005 (ip), vehicle: Klucel (hydroxypropylcellulose) (HPC) 108 % of control | dose: 6.25 mg/kg/injection, schedule: Q01DX005 (ip), vehicle: Klucel (hydroxypropylcellulose) (HPC) 100 % of control | [8] 103 % of control

CCCCc1c2cnccc2c(CCCC)c2c1[nH]c1ccccc12
inactive: dose: 25.0 mg/kg/injection, schedule: Q04DX002 (ip), vehicle: saline with Tween-80 105 % of control | dose: 50.0 mg/kg/injection, schedule: Q04DX002 (ip), vehicle: saline with Tween-80 100 % of control | dose: 100.0 mg/kg/injection, schedule: Q04DX002 (ip), vehicle: saline with Tween-80 96 % of control | dose: 200.0 mg/kg/injection, schedule: Q04DX002 (ip), vehicle: saline with Tween-80 91 % of control

COc1cc2ccc(CC(=S)N3CCOCC3)cc2cc1OC
inactive: [4] 90 % of control | dose: 200.0 mg/kg/injection, schedule: Q01DX009 (ip), vehicle: saline with Tween-80 90 % of control

O=C1OCc2c1cc1n(c2=O)Cc2cc3ccccc3nc2-1
inactive: dose: 1.0 mg/kg/injection, schedule: Q01DX009 (ip), vehicle: saline with Tween-80 99 % of control and 114 % of control and 115 % of control | dose: 2.0 mg/kg/injection, schedule: Q01DX009 (ip), vehicle: saline with Tween-80 105 % of control

Cc1cc2[n-]c1/C=c1\[n-]/c(c(CCC(=O)O)c1C)=C\c1[n-]c(c(C)c1CCC(=O)O)/C=c1/cc(C)/c([n-]1)=C/2.[Co]
inactive: [8] 98 % of control | [7] 101 % of control and 97 % of control | [1] 106 % of control

O=C(CCSCCCl)Nc1c([N+](=O)[O-])cc([N+](=O)[O-])cc1S(=O)(=O)O
inactive: dose: 3.13 mg/kg/injection, schedule: Q04DX003 (ip), vehicle: DMSO 104 % of control | dose: 6.25 mg/kg/injection, schedule: Q04DX003 (ip), vehicle: DMSO 99 % of control | dose: 12.5 mg/kg/injection, schedule: Q04DX003 (ip), vehicle: DMSO 111 % of control | dose: 25.0 mg/kg/injection, schedule: Q04DX003 (ip), vehicle: DMSO 124 % of control | dose: 25.0 mg/kg/injection, schedule: Q04DX003 (ip), vehicle: olive oil, sesame oil, peanut oil 118 % of control | dose: 50.0 mg/kg/injection, schedule: Q04DX003 (ip), vehicle: DMSO 118 % of control | dose: 75.0 mg/kg/injection, schedule: Q04DX003 (ip), vehicle: DMSO 118 % of control

C=CCOc1ccc(-c2ccccc2)cc1Br
inactive: [1] 108 % of control | [2] 102 % of control | [3] 100 % of control
